Assay results as given in US20220119399A1, “COMPOUNDS AND COMPOSITIONS THAT CAUSE MYCN AND/OR CMYC DEGRADATION AND METHODS OF USE THEREOF” (THE TRUSTEES OF COLUMBIA UNIVERSITY IN THE CITY OF NEW YORK, priority 2018, published 2022).
“Also recorded” adds a separate entry of the source.

How the values were obtained:
[1] = tested on: MYC targets gene set; assay: GSEA of Cancer Hallmarks gene sets from PLATE-Seq profiles; type: cell-based, human; conditions: SK-N-Be2 cells, 3.3 μM and 10 μM, 6 h and 24 h
Description: We next performed gene set analysis using PLATE-Seq expression profiling by binning transcripts according to the Cancer Hallmarks gene sets found at the molecular signatures database. Curated by the Broad Institute, these fifty hallmark pathway sets represent well defined cancer processes or states associated with cancer malignancies. […] Given that isopomiferin disrupted the MycN^AMP regulatory module, it was expected that this target would be suppressed by isopomiferin. We sought to understand how the compound is affecting cells by assessing whether any other pathways are affected by the compound. […] E2F […] regulators act in a feedback loop with MycN and also regulate cell cycle progression (Strieder and Lutz 2003; Li et al. 2014), so this is an interesting finding that will be further investigated. MycN enables cancer cells to evade the immune system by suppressing antigens that can act as immune attractants necessary for detection and destruction of cancer cells (Brandetti et al. 2017; Topper et al. 2017). It is possible that enrichment of the “Inflammatory Response” gene set is a result of desuppression of these targets as a result of MycN inhibition.
We sought to investigate biological pathways affected by isopomiferin by performing pathway enrichment analysis on a set of 50 hallmarks of cancer. […]

[2] = tested on: pAKT (Ser473); assay: pAKT (Ser473) western blot in SK-N-Be2 cells; type: cell-based, human; conditions: growth factor induced
Description: (§1) Membranes were blocked using Odyssey Blocking Buffer (LI-COR) for 1 hr at room temperature. […] Primary antibodies used in these studies include: MycN (CST; 1:500 dilution), Actin (SCBT; 1:2000 dil.), cMYC (CST; 1:500 dil.), pAKT (S473; CST; 1:500 dil.), AKT (CST; 1:2000), pP70 (T389; CST; 1:1000) P70 (CST; 1:1000).
We first tested whether isopomiferin disrupted […] signaling in NBL by treating SK-N-Be2 cells to isopomiferin and blotting for pAKT abundance. Treatment with […] (EGF) induces pAKT1 through mTOR signaling. We tested whether isopomiferin had the ability to disrupt mTOR signaling by pre-treating cells with isopomiferin for 2 hrs, following which cells were treated with 10 ng/ml EGF for 30 minutes to induce pAKT1. […] Total AKT abundance was used as a loading control to confirm that isopomiferin was simply not suppressing expression of AKT abundance.

[3] = tested on: pS6K; assay: S6K phosphorylation western blot in SK-N-Be2 cells; type: cell-based, human; conditions: 10 μM and 20 μM, 24 hours
Description: as §1
(§2) We then tested whether mTORC2 complex was disrupted by isopomiferin treatment. […] to enable translation. We tested whether phosphorylation of S6K was inhibited by isopomiferin by treating SK-N-Be2 cells to 10 μM and 20 μM isopomiferin for 24 hours and blotting for pS6K, using total S6K protein as a loading control. […] We then tested whether this was consistent across cell lines by performing a similar experiment in an NSCLC cell line, A549.

[4] = tested on: pS6K; assay: S6K phosphorylation western blot in A549 cells; type: cell-based; conditions: 24 hrs
Description: as §1, §2

[5] = molecular target: mTOR (Homo sapiens, UniProt P42345); assay: Cell-free biochemical mTOR kinase assay
Procedure: (§3) Cell-free biochemical kinase assays were performed at Reaction Biology Corporation (Malvern, Pa.). In brief, kinase substrates were diluted into reaction buffer containing 20 mM Hepes (pH 7.5), 10 mM MgCl2, 1 mM EGTA, 0.02% Brij35, 0.02 mg/ml BSA, 0.1 mM Na3VO4, 2 mM DTT, 1% DMSO. Purified protein (CK2a1, CK2a2, or mTOR) was added to the substrate solution and gently mixed. Test compounds were diluted from 10 mM DMSO stock solutions into the reaction buffer using an Echo550 acoustic dispenser, followed by incubation at RT for 20 min. 33P-ATP (10 μCi/μL) was added to reaction mixture, following incubation for 2 h at RT. Reactions were then spotted onto P81 ion exchange paper and kinase activity was detected by filter binding method.

[6] = tested on: MYC protein; assay: Western blot of MYC protein in SCLC lines NCI-H69 and NCI-H209; type: cell-based; conditions: NCI-H69 and NCI-H209, 24 h
Description: as §1

[7] = molecular target: T1, CK2a2 (Homo sapiens, UniProt P19784); assay: Cell-free biochemical CK2a2 kinase assay
T1 construct: purchased Reaction Biology Corporation (Malvern, Pa.)
T1 sequence (P19784 whole entry): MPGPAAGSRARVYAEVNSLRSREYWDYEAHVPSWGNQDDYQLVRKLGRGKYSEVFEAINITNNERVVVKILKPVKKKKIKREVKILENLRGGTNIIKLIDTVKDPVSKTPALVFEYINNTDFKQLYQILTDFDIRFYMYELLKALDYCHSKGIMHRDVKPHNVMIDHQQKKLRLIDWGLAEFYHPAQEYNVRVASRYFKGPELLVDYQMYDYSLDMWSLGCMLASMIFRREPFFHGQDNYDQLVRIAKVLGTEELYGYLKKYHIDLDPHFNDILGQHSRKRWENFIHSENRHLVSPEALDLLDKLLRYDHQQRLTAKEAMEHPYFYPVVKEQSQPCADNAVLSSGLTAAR
Procedure: as §3

[8] = Stability in mouse plasma; type: in vitro ADME; conditions: 4 h incubation, 20 μM
Procedure: Mouse plasma was diluted with 100 mM PBS buffer at 7.4 pH and at a 1:1 ratio, and warmed to 37° C. Test compounds were added to the plasma solution at 20 μM and incubated for the indicated time point. Reactions was quenched by aliquoting 15 μL of solution into 60 μL ice-cold acetonitrile containing an internal standard. Compounds were quantified by LC-MS, as detailed above.

[9] = tested on: PLK1, LIN28B, and BMI1 transcripts; assay: qPCR of downstream targets of MycN (PLK1, LIN28B, BMI1) in SK-N-Be2 cells; type: cell-based, human; conditions: 10 μM, up to 24 h
Procedure: Reverse transcription quantitative polymerase chain reaction (RT-qPCR) was used to quantify transcript abundance of genes of interest. Total RNA was isolated from cells using the Qiaquick RNeasy isolation kit following manufacturer's instruction (QIAGEN). RNA quality and abundance was measured using a nanodrop spectrophotometer. A total of 2 μg RNA was used as a template for reverse transcription reactions. cDNA synthesis was performed using TaqMan reverse transcriptase following the manufacturer's instructions, using both oligod(T) and random hexamers as primers for RT reactions. RNAse treatment of cDNA removed any residual RNA in cDNA samples. cDNA samples were diluted 10-fold into nuclease-free dH2O, and used as the template for quantitative PCR reactions were performed in a Viia7 […] thermocycler using SYBR green and gene-specific primers (Table 1). qPCR reactions were performed using the Viia7 Real-Time PCR system (Applied Biosystems), and relative transcript abundance evaluated using the deltaCT method, using the GAPDH housekeeping gene as normalization control.

[10] = tested on: cancer cell lines and non-transformed cells; conditions: Darji et al. 2013; Son et al. 2007; cited from earlier work
[11] = tested on: mutant isoform of CK2a1; assay: Cell viability after expression of mutant CK2a1 isoform; conditions: versus GFP-expressing plasmid

Structure (SMILES)	Cancer Hallmarks gene set enrichment (MYC Targets, E2F Targets, G2M Checkpoint) [1]	pAKT accumulation / AKT (Ser473) phosphoactivation [2]	pAKT accumulation / AKT (Ser473) phosphoactivation ([2]; listed as Isopomiferin)	phosphorylation of S6K (P70^S6K) [3]	phosphorylation of S6K (P70^S6K) ([3]; listed as Isopomiferin)	pS6K [4]	mTOR kinase activity [5]	MYC protein abundance in SCLC lines [6]	CK2a2 kinase activity [7]	compound remaining in mouse plasma [8]	transcript accumulation of PLK1, LIN28B, and BMI1 [9]	potency in transformed cells relative to non-transformed cells [10] [fold]	resistance conferred by mutant CK2 isoform [11]
CC1(C)C=Cc2c(c3c(c4c(=O)c(-c5ccc(O)c(O)c5)coc24)OC(C)(C)CC3)O1 [isopomiferin]	suppressed the MYC targets gene set; also recorded: suppressed by isopomiferin treatment in a time- and dose-dependent manner	blocked pAKT accumulation in presence of EGF treatment	inhibited phosphorylation of P70^S6K, as well as the IGF1-induced phosphoactivation of AKT (Ser473)	completely inhibited phosphorylation of S6K protein	inhibited phosphorylation of P70^S6K	suppressed pS6K in A549 cells	did not directly inhibit mTOR kinase activity	suppressed MYC protein in both SCLC lines					
CC(C)=CCc1c2c(c3occ(-c4ccc(O)c(O)c4)c(=O)c3c1O)C=CC(C)(C)O2 [pomiferin]									inhibiting both isoforms equally in a concentration-dependent manner	approximately 75%	inhibited the transcript accumulation of three downstream targets of MycN	> 10	modest resistance
